Test results published in patent US8324223B2, “Substituted thieno [2,3-d] pyrimidines as HIV inhibitors” (priority 2006, dated 2012).

What was measured:
Test in all cases: microbe, parasite or virus in culture
Assay type in all cases: cell-based, human immunodeficiency virus type 1 (HIV-1)
HIV-1 Y188L = details: Human immunodeficiency virus 1, HeLa, read-out: EC50 Y188L (nM)
wild type HIV-1 = details: Human immunodeficiency virus 1, Hela-JC53, read-out: EC50 WT (nM)
HIV-1 L100I-K103N = details: Human immunodeficiency virus 1, HeLa, read-out: EC50 L100I-K103N (nM)
HIV-1 Y181C = details: Human immunodeficiency virus 1, HeLa, read-out: EC50 Y181C (nM)

| SMILES | EC50 (HIV-1 Y188L) [nM] | EC50 (wild type HIV-1) [nM] | EC50 (HIV-1 L100I-K103N) [nM] | EC50 (HIV-1 Y181C) [nM] |
| --- | --- | --- | --- | --- |
| Cc1cc(C)c(Oc2nc(Nc3ccc(C#N)cc3)nc3c(C)csc23)c(C)c1 [Cpd 6] | 10 to 100 | 10 to 100 | 10 to 100 | 10 to 100 |
| Cc1cc(C#N)cc(C)c1Oc1nc(Nc2ccc(C#N)cc2)nc2sccc12 [Cpd 7] | < 10 | < 10 | 10 to 100 | < 10 |
| Cc1cc(C)c(Oc2nc(Nc3ccc(C#N)cc3)nc3sc4c(c23)CCCC4)c(C)c1 [Cpd 5] | > 100 | 10 to 100 | > 100 | > 100 |
| Cc1cc(C)c(Nc2nc(Nc3ccc(C#N)cc3)nc3ccsc23)c(C)c1 [Cpd 2] | > 100 | < 10 | > 100 | 10 to 100 |
| Cc1cc(C)c(Nc2nc(Nc3ccc(C#N)cc3)nc3c(C)csc23)c(C)c1 [Cpd 8] | 10 to 100 | < 10 | – | 10 to 100 |
| Cc1cc(C#N)cc(C)c1Oc1nc(Nc2ccc(C#N)cc2)nc2c(C)csc12 [Cpd 9] | < 10 | < 10 | < 10 | < 10 |
| Cc1cc(C)c(Oc2nc(Nc3ccc(C#N)cc3)nc3sccc23)c(C)c1 [Cpd 4] | 10 to 100 | < 10 | 10 to 100 | 10 to 100 |
| Cc1cc(C#N)cc(C)c1Oc1nc(Nc2ccc(C#N)cc2)nc2ccsc12 [Cpd 3] | < 10 | < 10 | < 10 | 10 to 100 |
| Cc1cc(C)c(Oc2nc(Nc3ccc(C#N)cc3)nc3ccsc23)c(C)c1 [Cpd 1] | < 10 | < 10 | 10 to 100 | < 10 |
